These results are taken from patent publication US6383773B2, “Penicillin conversion” (Massachusetts Institute of Technology, priority 1998, dated 2002).

Experiment [1] relates to resting S. clavuligerus NP1 cells. As to the kind of experiment: Penicillin G conversion by resting cells: buffer, preincubation, substrate concentration (Example 4). Type of experiment: cell-based. On the procedure:
Microorganisms, Media, and Culture Conditions: S. clavuligerus mutant NP-1, described in Example 1 was used for these studies. A seed culture was made by inoculating a spore suspension (40 μl) into 40 ml MST medium in 250 ml baffled flasks, and incubating for 2 days at 30° C. and 250 rpm. One ml of the seed culture was used as inoculum for the main culture which contained 80 ml of MST medium in 500 ml unbaffled flasks. The flasks were incubated for 24 h at 30° C. and 250 rpm.
Preparation of Resting Cells: Cells were harvested by centrifugation at 14,000×g, for 15 min at 4° C. and washed twice with cold deionized water. They were resuspended in 10 ml of water.
Ring Expansion Reaction: The standard reaction mixture (10 ml) contained 0.05 M Tris-HCl pH 7.4, 8.0 mM KCl, 8.0 mM MgSO4.7H2O, 4.0 mM ascorbic acid, 1.8 mM FeSO4.7H2O, 1.28 mM α-ketoglutaric acid, 20 mg/ml penicillin G and 4.0 ml cell suspension. The order of addition of the components were as previously described (Shen et al., Enzyme Microb. Technol. 6:402-404, 1984). The reaction started when penicillin G was added to the reaction mixture which was incubated at 30° C. and 220 rpm.
Expandase Assay: Product formation was estimated by the paper disk-agar diffusion bioassay as described in example 1, using deacetoxycephalosporin G as standard. Escherichia coli strain Ess, a β-lactam supersensitive, mutant was used as the assay microorganism.

The target of experiment [2] is T1, S. clavuligerus expandase (Streptomyces clavuligerus, UniProt P18548).
T1 construct: The cells were resuspended in the same buffer and disrupted by four 25-sec. sonication treatments; endogenous in cells; host or cells: S. clavuligerus mutant NP1, crude cell-free extract
The following applies: literature reports (Jensen 1982; Dotzlaf 1989; Yeh 1994; Maeda 1995); cited from earlier work.

Experiment [3] concerns immobilized S. clavuligerus NP1 cells. As to the kind of experiment: Conversion of penicillin G by immobilized cells (Example 5). Type of experiment: cell-based. On the procedure: Culture Conditions: A seed culture of S. clavuligerus mutant NP-1 was made by thawing a frozen preparation of spores and inoculating 40μl into 40 ml MST medium containing 90 mM MOPS buffer, pH 7.0, 1% starch and 3% trypticase soy broth medium without dextrose (BBL Becton Dickinson Microbiology Systems, Cockeysville, Md.) in 250 ml baffled flasks. The flasks were incubated for 2 days at 30° C. and 250 rpm. One ml of the seed culture was used as inoculum for the main culture which contained 80 ml of MST medium in 500 ml unbaffled flasks. The flasks were incubated for 24 h at 30° C. and 250 rpm.
Preparation of Resting Cells: Cells were harvested by centrifugation at 14,000×g for 15 min at 4° C. and washed twice with cold deionized water. Washed cells were resuspended in 10 ml of water giving a concentration (wet weight) of about 0.31 g/ml.
Preparation of Polyethyleneimine (PEI)-Barium Alginate Entrapped Cells: Resting cells from a one-day old culture of S. clavuligerus NP-1 (2 g wet weight) were directly resuspended in 20 ml of 1.5% (w/v) sodium alginate solution. The resulting sodium alginate-cell suspension was placed into a 10 ml plastic syringe containing a 26.6 G needle. The suspension was added drop by drop into a slowly stirring hardening solution of 2% (w/v) barium chloride containing 1% (w/v) PEI, giving beads of about 1.5-2.0 mm in diameter. […]

T1 sequence (P18548 whole entry): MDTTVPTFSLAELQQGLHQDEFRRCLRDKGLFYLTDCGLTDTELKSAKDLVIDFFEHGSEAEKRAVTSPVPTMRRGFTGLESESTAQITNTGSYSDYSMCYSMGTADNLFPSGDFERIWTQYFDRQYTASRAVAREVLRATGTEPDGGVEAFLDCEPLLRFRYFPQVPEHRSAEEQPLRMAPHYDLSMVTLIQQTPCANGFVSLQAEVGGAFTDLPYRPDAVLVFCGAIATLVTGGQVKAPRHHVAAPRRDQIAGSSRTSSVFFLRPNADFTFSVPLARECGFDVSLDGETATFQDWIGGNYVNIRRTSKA

`CC1(C)S[C@@H]2[C@H](NC(=O)Cc3ccccc3)C(=O)N2[C@H]1C(=O)O` [Penicillin G, penicillin G]: the percent conversion in experiment [1] (0.015 mg/ml substrate, subsequent experiments) is recorded as at most 16.5%; in experiment [1] (0.063 mg/ml of penicillin G), “about 9.0%”; in experiment [1] (2 mg/ml of penicillin G), “about 1.0%”; in experiment [1] (8 mg/ml of penicillin G) it was “about 0.4%”. In addition, the “increase of cephalosporin production versus 0.05 M Tris-HCl pH 7.4” value in experiment [1] (0.05 M MOPS pH 6.5 or 0.05 M HEPES pH 6.5) was “more than two-fold”. The “penicillin G conversion” value in experiment [1] (cells preincubated 3 hours with Fe2+ and ascorbic acid, with or without α-ketoglutarate) was “virtually eliminated”. Further, the “reduction of total production” value in experiment [1] (cells preincubated 3 hours with either buffer, Fe2+, ascorbic acid, or α-ketoglutarate) is “about 50%”. The ring expansion result in experiment [2] was “not”; in experiment [3] (resting cells entrapped in PEI-barium alginate (1.5%)) it was “able to expand penicillin G”. Further, the “cephalosporin production” value in experiment [3] (cells immobilized in agarose (4% w/v) and k-carrageenan (3% w/v)) is recorded as “did not observe cephalosporin production”.
